According to paper PMC10892497, “Discovery of Pyrano[2,3-c]pyrazole Derivatives as Novel Potential Human Coronavirus Inhibitors: Design, Synthesis, In Silico, In Vitro, and ADME Studies” (Pharmaceuticals, 2024):
Like-named read-outs stand apart in the source and are kept apart here.

Tests used:
[1] = MTT assay for cellular toxicity; settings: African green monkey
[2] = test system: HCoV-229E; test: Cytopathic inhibition assay (crystal violet); settings: for antiviral activity against HCoV-229E (in words): Vero-E6; for IC50: cytopathic inhibition assay
[3] = test system: HCoV-229E; test: Mode of action using plaque assay (virucidal, adsorption, replication); type: cell-based, human coronavirus 229E; settings: replication mechanism
[4] = biological target: T1, SARS-CoV2 protease enzyme (3CL protease, M^pro) (Severe acute respiratory syndrome coronavirus 2, UniProt P0DTD1); test: Protease (SARS-CoV2) inhibition test, 3CL Protease Test Kit; type: biochemical
T1 construct: provided with 30 µL of diluted 3CL Protease enzyme solution (M^pro); purchased BPS Bioscience, San Diego, CA, USA #79955-1

[5] = Human coronavirus 229E, Vero C1008, HCoV-229E in Vero-E6 cells
[6] = Vero-E6 cells infected with HCoV-229E

| Compound | CC50 at 48 h [1] [µM] | selectivity ratio [2] | antiviral activity against HCoV-229E (in words) [2] | IC50 [2, 5] [µM] | IC50 ([2]; HCoV-229E in Vero-E6 cells) [µM] | reduction percentage, replication phase [3] [%] | IC50 [4] [µM] | selectivity ratio [2, 6] | melting point [°C] |
| --- | --- | --- | --- | --- | --- | --- | --- | --- | --- |
| Cc1n[nH]c2c1C(c1cccs1)c1c(N)ncnc1O2 (stereo not drawn) [Compound 2] | 749 | 2.4 | minimal antiviral activity | 309 | – | – | – | – | – |
| Cc1n[nH]c2c1C(c1cccs1)C(C#N)=C(/N=C/c1nncn1C)O2 (stereo not drawn) [Compound 4] | 67.5 | 0.9 | did not | 78.1 | 70.1 | – | – | – | – |
| Cc1n[nH]c2c1C(c1cccs1)C(C#N)=C(N1C(=O)CSC1c1nncn1C)O2 (stereo not drawn) [Compound 5] | 95.4 | 1.86 | minimal antiviral activity | 51.2 | – | – | – | – | – |
| Cc1n[nH]c2c1C(c1cccs1)C(C#N)=C(N1C(=O)C(Cl)C1c1nncn1C)O2 (stereo not drawn) [Compound 6] | 585 | – | moderate efficacies | 65.6 | 89.4 | 53.6 | 105 | 7.6 | – |
| COP(=O)(OC)C1(c2csnn2)NC2=C(C1=O)C(c1cccs1)c1c(C)n[nH]c1O2 (stereo not drawn) [Compound 7, dimethyl(3-methyl-5-oxo-6-(1,2,3-thiadiazol-4-yl)-4-(thiophen-2-yl)-4,5,6,7-tetrahydro-1H-pyrrolo[3′,2′:5,6]pyrano[2,3-c]pyrazol-6-yl)phosphonate] | 190 | 4.3 | moderate efficacies | 35.8 | 25.8 | 60.7 | 772 | – | – |
| Cc1n[nH]c2c1C(c1cccs1)C1=C(NC(c3csnn3)c3c(C(F)(F)F)nn(C)c3OC1=N)O2 (stereo not drawn) [Compound 8] | 45.3 | 0.6 | did not | 86.2 | 69.1 | – | – | – | – |
| CCO/C=N/C1=C(C#N)C(c2cccs2)c2c(C)n[nH]c2O1 (stereo not drawn) [Compound 9] | 365 | 2.3 | minimal antiviral activity | 134 | 134 | – | – | – | – |
| Cc1n[nH]c2c1C(c1cccs1)c1c(ncn(N)c1=N)O2 (stereo not drawn) [Compound 10] | 25.4 | 1.3 | minimal antiviral activity | – | – | – | – | – | – |
| Cc1n[nH]c2c1C(c1cccs1)c1c(ncn3[nH]c(=S)nc13)O2 (stereo not drawn) [Compound 11] | 19.7 | 1.7 | minimal antiviral activity | 16 | 10.9 | – | – | – | – |
| Cc1n[nH]c2c1C(c1cccs1)c1c(ncn3ncnc13)O2 (stereo not drawn) [Compound 12] | 66.6 | 3.5 | minimal antiviral activity | 18.6 | – | – | – | – | – |
| Cc1n[nH]c2c1C(c1cccs1)c1c(ncn3nc(-c4nc[nH]n4)nc13)O2 (stereo not drawn) [Compound 13] | 49.8 | 0.46 | did not | 88.8 | 88.8 | – | – | – | – |
| Cc1n[nH]c2c1C(c1cccs1)C(C#N)=C(/N=C/[C@H](O)[C@@H](O)[C@H](O)CO)O2 (stereo partly drawn) [Compound 14] | 507 | – | moderate efficacies | 78.7 | – | 55 | 180 | 6.5 | – |
| Cc1n[nH]c2c1C(c1cccs1)C(C#N)=C(/N=C/[C@@H](O)[C@H](O)[C@H](O)CO)O2 (stereo partly drawn) [Compound 15] | 146 | 1.18 | minimal antiviral activity | 123 | 123 | – | – | – | > 300 |
| Cc1n[nH]c2c1C(c1cccs1)C(C#N)=C(/N=C/[C@@H](O)[C@@H](O)[C@H](O)[C@H](O)CO)O2 (stereo partly drawn) [Compound 17] | 183 | 1.7 | minimal antiviral activity | 95.4 | – | – | – | – | > 300 |
| Cc1n[nH]c2c1C(c1cccs1)C(C#N)=C(/N=C/[C@H](O)[C@@H](O)[C@@H](O)[C@H](O)CO)O2 (stereo partly drawn) [Compound 18] | 567 | – | – | 44.9 | – | 82.2 | 66.1 | 12.6 | > 300 |
| CCC[C@@]1(CCc2ccccc2)CC(O)=C([C@H](CC)c2cccc(NS(=O)(=O)c3ccc(C(F)(F)F)cn3)c2)C(=O)O1 [tipranavir, reference compound] | – | – | – | – | – | – | 22.1 | – | – |
